Consider 13 compounds from patent US8426606B2, “2′,2-bisthiazole non-nucleoside compounds, preparation methods, pharmaceutical compositions and uses as hepatitis virus inhibitors thereof” (Shanghai Institute of Materia Medica, Chinese Academy of …, priority 2010, dated 2013).

The test system of one series is HBV. The series is described as follows: Anti-HBV activity assay: HBV-DNA replication in HepG2.2.15 cells, fluorescent quantitation PCR of culture supernatant. Format: cell-based, Hepatitis B Virus. The conditions noted are these: for IC50: Hepatitis B virus, HBV-DNA in supernatant on the eighth day, read-out: IC50 (concentration at which 50% of the replication of HBV was inhibited); for SI (bioactivity selective index): anti-HBV. How it is done: (§1) The anti-HBV activity assay of a specimen compound was performed in HepG2.2.15 cells stably transformed with the whole genome of HBV, including the determination of the cytotoxicity of the specimen compound (CC50) and the effect of the specimen compound on the replication level of HBV-DNA (IC50).
(§2) The Human hepatoma carcinoma cell HepG2.2.15 cell line stably transformed with the whole genome of HBV can stably secrete hepatitis B virosomes (containing DNA) in the supernatant of culture during culture. Both the antiviral activity and the cytotoxicity of the specimen drugs may be determined by detecting the amount of virus DNA secreted into the supernatant of culture by the cells under the intervention of an antiviral drug, in reference to the amount in control group that is the absence of the antiviral drug. A real-time fluorescent quantitation PCR assay was adopted to determine the concentration of a specimen drug at which 50% of the replication of HBV-DNA was inhibited (IC50), and a MTT assay was adopted to determine the concentration of a specimen drug at which 50% cytotoxicity occurs (CC50).
The specimen drug was prepared into a solution having a concentration (400 μM) desired for the experiment before use. Six diluted concentrations were tested for each specimen drug. The clinical anti-hepatitis B virus drug Lamivudine was used as the positive control in experiment so as to determine whether the reaction is normal or not in each experiment.
(§3) HepG2.2.15 cells were inoculated on a 96-well plate at 5×10^5 cells/ml. On the second day, the specimen drug was added. After the culture medium and the specimen drug having the same concentration as above were replaced periodically, on the eighth day, the supernatant of culture was collected to be tested. To the cells on the 96-well plate, MTT (5 mg/ml) is added. 4 hours later, MTT lysis solution was added (100 μl/well). The next day, OD570 was read on a microplate reader. The cytotoxicity of the specimen drug on HepG2.2.15 cells, the influence of specimen drug on cell growth, and the concentration of specimen drug at which 50% of cells were killed (CC50) were calculated in accordance with the OD value.
A proper amount of the supernatant of culture was added into an isovolumic virus extract and mixed uniformly. The resulted mixture was boiled, and then centrifuged for 5 minutes at 10,000 rpm at room temperature. A proper amount of the obtained supernatant was used to perform PCR amplification, and meanwhile four standard samples of HBV-DNA were set up to make a standard curve. The inhibition of each specimen drug at various concentrations against the replication of HBV-DNA was calculated according to the detected replication value of the viral DNA, and then the half inhibition of the specimen drug was calculated to obtain its IC50.

Series [1] is described as follows: Cytotoxicity on HepG2.2.15 cells (MTT assay). Format: cell-based, Human. The note with it: human, read-out: CC50 (concentration at which 50% of cells was killed). The protocol:
as §1, §2, §3
In general terms: Tetrazolium dyes change colour on reduction, which living cells bring about.

The test system of a further series is HCV (J399E). The series is described as follows: microbe, parasite or virus in culture. The conditions noted are these: for IC50: Hepatitis C virus, Huh-7.5.1, 72 h, read-out: IC50 (concentration at which 50% of the replication of HCV was inhibited); for SI (bioactivity selective index): anti-HCV, Huh7.5.1 cells. Format: cell-based, Hepatitis C Virus. The protocol: The variation of the green fluorescence intensity was recorded on a microplate reader and cytotoxicity was measured at the same time, so as to evaluate the influence of the compound on the replication activity of HCV.
Compounds to be tested were dissolved in DMSO to prepare a stock solution before the test. Upon using, the stock solution was diluted to a desired concentration with DMEM (Dulbecco's Modified Eagle Media, purchased from GibcoBRL company (Life Technologies, Grand Island, N.Y., USA)) containing 10% FBS (fetal bovine serum, purchased from Hyclone company (Logan, Utah, USA)).
Positive control: ribavirin (purchased from Sigma/Aldrich). It was dissolved in DMSO to prepare a stock solution and stored at −20° C. before use, and diluted to a desired concentration upon using.
(§4) Huh7.5.1 cells (10% FBS, DMEM) at the concentration of 10^5 cells/ml were inoculated on a 96-well plate (Costar 3904) with 100 μl per well. 24 hours later, the supernatant of culture was sucked out, and 50 μl of virus supernatant with MOI=0.1 was added. 8 hours later, 50 μl of the testing drug was added and 100 μl of culture medium was supplemented. After incubation for 72 hours, the supernatant was sucked out, and read on a fluorescent microplate reader (Ex=488 nm, Em=516 nm). Then each well was added with 20 μl of MTT (5 mg/ml) and additional 50 μl of culture medium. 4 hours later, 100 μl of MTT lysis solution was added. 6 hours later, reading was performed at a wavelength of 570 nm.

A short description of the next series: in vitro. It counts as cell-based. The note with it: human. How it is done:
The anti-HCV activity assay was performed by using Huh7.5.1 cells (donated by WUHAN INSTITUTE of VIROLOGY, CHINESE ACADEMY OF SCIENCES) infected by HCV (J399E) inserted with enhanced green fluorescent protein (EGFP). The variation of the green fluorescence intensity was recorded on a microplate reader and cytotoxicity was measured at the same time, so as to evaluate the influence of the compound on the replication activity of HCV.
as §4

A short description of series [2]: In vivo pharmacokinetic studies in rats (intragastric and intravenous). On the set-up: species or system SD rats. The note with it: rat, plasma, po; male SD rats, 20 mg/kg intragastric, dosage normalized, calculated according to AUC0-t. The protocol:
(§5) Intragastric Administration Three healthy male SD rats having body weights of 200 g to 250 g were administered with a specimen drug with a dosage of 20 mg/kg and a volume of 10 ml/kg. The rats were fasted for 12 hours before administration and had the freedom to drink water. The venous blood with a volume of 0.3 ml was obtained from the retrobulbar venous plexus of the rats at 0.25 h, 0.5 h, 1.0 h, 2.0 h, 3.0 h, 4.0 h, 5.0 h, 7.0 h, 9.0 h and 24 h after the administration, put in a heparinized tube, and centrifuged for 10 minutes at 3500 rpm to separate the plasma, which was stored at −20° C. to be tested.
as §5, with “Intravenous Injection: Three healthy” for “Intragastric Administration Three healthy”, “dosage of 10 mg/kg and” for “dosage of 20 mg/kg and”, “volume of 5.0 ml/kg. The” for “volume of 10 ml/kg. The”, “rats at 5 min, 15 min, 0.5 h,” for “rats at 0.25 h, 0.5 h,”, “heparinized tube, centrifuged for” for “heparinized tube, and centrifuged for”

Take `CC(C)C(F)c1sc(-c2nccs2)nc1C(=O)NCc1ccc(F)cc1` (stereo not shown) [Compound 393-1, N-(p-fluorobenzyl)-5-(1-fluoro-2-methylpropyl)-2′,2-bisthiazole-4-formamide]: in the series with HBV, the IC50 is less than 0.41 µM and the “SI (bioactivity selective index)” value is greater than 81. Moreover, the CC50 at 6 days in series [1] is greater than 33.3 µM. In the series with HCV (J399E), the IC50 was found to be 7.4 µM and the “SI (bioactivity selective index)” value is reported as 5.5. Further, in “in vitro”, the CC50 at 72 h was found to be 40.9 µM.

Regarding `Nc1ccn([C@@H]2CS[C@H](CO)O2)c(=O)n1` [Lamivudine, reference compound], in the series on HBV, the IC50 is less than 0.16 µM and the “SI (bioactivity selective index)” value is on record as greater than 32. Besides, in series [1], the CC50 at 6 days was greater than 5 µM.

As for `COC(c1sc(-c2nccs2)nc1C(=O)NCc1ccc(F)cc1)C(C)C` (stereo not shown) [Compound 405-1, N-(p-fluorobenzyl)-5-(1-methoxy-2-methylpropyl)-2′,2-bisthiazole-4-formamide], the IC50 is 2.6 µM in the series on HBV and 3.7 µM with HCV (J399E). Moreover, the “SI (bioactivity selective index)” value is greater than 12.8 in the series on HBV and 5.8 in the series with HCV (J399E). Besides, the CC50 at 6 days in series [1] was greater than 33.3 µM. This compound showed a CC50 at 72 h in “in vitro” of 21.4 µM.

As to `Cc1cnc(-c2nc(C(=O)NCc3ccc(F)cc3)c(C(F)C(C)C)s2)s1` (stereo not shown) [Me-393-1, N-(p-fluorobenzyl)-5′-methyl-5-(1-fluoro-2-methylpropyl)-2′,2-bisthiazole-4-formamide], in the series with HBV, the IC50 came to 0.2 µM and the “SI (bioactivity selective index)” value was greater than 500. In addition, the CC50 at 6 days in series [1] is greater than 100 µM. Further, in the series on HCV (J399E), the IC50 amounted to 6.6 µM and the “SI (bioactivity selective index)” value was greater than 15.2. In addition, the CC50 at 72 h in the series “in vitro” was greater than 100 µM.

In the case of `Cc1cnc(-c2nc(C(=O)NCc3ccc(F)cc3)c(C(O)C(C)C)s2)s1` (stereo not shown) [Me-391-1, N-(p-fluorobenzyl)-5′-methyl-5-(1-hydroxy-2-methylpropyl)-2′,2-bisthiazole-4-formamide], the IC50 came to 2.9 µM in the series with HBV and 3.7 µM in the series with HCV (J399E). Besides, the “SI (bioactivity selective index)” value is given as greater than 11.5 in the series on HBV and greater than 9 with HCV (J399E). Moreover, the CC50 at 6 days in series [1] is greater than 33.3 µM. For the same compound, the CC50 at 72 h in “in vitro” is greater than 33.3 µM.

Take `CC(C)=Cc1sc(-c2nccs2)nc1C(=O)NCc1ccc(F)cc1` [Compound 373, N-(p-fluorobenzyl)-5-[1-(2-methylpropenyl)]-2′,2-bisthiazole-4-formamide]: in the series with HBV, the IC50 was determined as 0.9 µM and the “SI (bioactivity selective index)” value is greater than 111.1. The CC50 at 6 days in series [1] was greater than 100 µM. In the series with HCV (J399E), the IC50 was found to be 5.7 µM and the “SI (bioactivity selective index)” value was 14.9. In the series “in vitro”, the CC50 at 72 h was 85 µM. The bioavailability in series [2] was 6.9%.

As for `CC(C)(F)Cc1sc(-c2nccs2)nc1C(=O)NCc1ccc(F)cc1` [Compound 393-2, N-(p-fluorobenzyl)-5-(2-fluoro-2-methylpropyl)-2′,2-bisthiazole-4-formamide], in the series on HBV, the IC50 was 0.41 to 33.3 µM and the “SI (bioactivity selective index)” value was less than 81. In series [1], the CC50 at 6 days was greater than 33.3 µM. Further, in the series on HCV (J399E), the IC50 turned out to be 1.5 µM and the “SI (bioactivity selective index)” value was greater than 22.2. The CC50 at 72 h in “in vitro” is greater than 33.3 µM.

For `C/C(=C\c1sc(-c2nccs2)nc1C(=O)NCc1ccc(F)cc1)CF` [Compound 391-F, N-(p-fluorobenzyl)-5-[1-(2-fluoromethylpropenyl)]-2′,2-bisthiazole-4-formamide], the values for the IC50 in the series with HBV and in the series on HCV (J399E) were 12.5 µM and 6.5 µM, respectively. The “SI (bioactivity selective index)” value with HBV was greater than 8; in the series on HCV (J399E), 13.0. Moreover, the CC50 at 6 days in series [1] is greater than 100 µM. In the series “in vitro”, this compound registered a CC50 at 72 h of 84.7 µM.

In the case of `NC(=O)c1ncn([C@@H]2O[C@H](CO)[C@@H](O)[C@H]2O)n1` [Ribavirin, ribavirin, reference compound], in the series with HCV (J399E), the IC50 amounted to 72.4 µM and the “SI (bioactivity selective index)” value is given as greater than 2.8. This compound displayed a CC50 at 72 h in the series “in vitro” greater than 200 µM.

In the case of `CC(CO)Cc1sc(-c2nccs2)nc1C(=O)NCc1ccc(F)cc1` (stereo not shown) [Compound 391-3, N-(p-fluorobenzyl)-5-(3-hydroxy-2-methylpropyl)-2′,2-bisthiazole-4-formamide], in the series with HBV, the IC50 is less than 0.41 µM and the “SI (bioactivity selective index)” value is given as greater than 243.9. In series [1], the CC50 at 6 days was greater than 100 µM. Besides, in the series with HCV (J399E), the IC50 is 9.9 µM and the “SI (bioactivity selective index)” value amounted to 2.8. The same compound gave a CC50 at 72 h in the series “in vitro” of 28.1 µM.

As for `CC(C)C(O)c1sc(-c2nccs2)nc1C(=O)NCc1ccc(F)cc1` (stereo not shown) [Compound 391-1, N-(p-fluorobenzyl)-5-(1-hydroxy-2-methylpropyl)-2′,2-bisthiazole-4-formamide], in the series on HBV, the IC50 was found to be 1.63 µM and the “SI (bioactivity selective index)” value was 20.9. Further, the CC50 at 6 days in series [1] was found to be 34 µM. Further, in the series on HCV (J399E), the IC50 amounted to 10.2 µM and the “SI (bioactivity selective index)” value stood at 4.8. Also, the CC50 at 72 h in “in vitro” was determined as 48.6 µM.

Take `C/C(=C\c1sc(-c2nccs2)nc1C(=O)NCc1ccc(F)cc1)CO` [Compound 389, N-(p-fluorobenzyl)-5-[1-(3-hydroxy-2-methylpropenyl)]-2′,2-bisthiazole-4-formamide]: the figures for the IC50 in the series on HBV and with HCV (J399E) were 30.2 µM and 6.6 µM, respectively. The “SI (bioactivity selective index)” value is listed as greater than 3.3 with HBV and 11.6 with HCV (J399E). The CC50 at 6 days in series [1] was greater than 100 µM. Further, the CC50 at 72 h in the series “in vitro” worked out at 76.5 µM.

For the compound `CC(C)=Cc1sc(-c2ncc(C)s2)nc1C(=O)NCc1ccc(F)cc1` [Me-373, N-(p-fluorobenzyl)-5′-methyl-5-[1-(2-methylpropenyl)]-2′,2-bisthiazole-4-formamide], in the series with HBV, the IC50 worked out at 1.1 µM and the “SI (bioactivity selective index)” value is greater than 90.9. For the same compound, the CC50 at 6 days in series [1] was greater than 100 µM. For the same compound, in the series on HCV (J399E), the IC50 was found to be 17.4 µM and the “SI (bioactivity selective index)” value was 3.8. For the same compound, the CC50 at 72 h in “in vitro” was 66.6 µM.

For orientation: bioavailability means the share of a dose that reaches the circulation, judged against a reference dose that is usually intravenous.
